# Experimental data reported in patent publication US9700501B2, “Use of indole compounds as a cosmetic” (MERCK PATENT GESELLSCHAFT MIT BESCHRANKTER HAFTUNG, priority 2008, dated 2017).
# Tests used:
# [1] = target: T1, PPAR alpha (Homo sapiens, UniProt Q07869); test: PPAR-alpha transactivation assay (luciferase reporter, SK-Hep1 cells cotransfected with PPARα expression vector); format: cell-based; conditions: for Fold Activation PPAR alpha: 36 h incubation, luciferase activity relative to control
# T1 construct: expressed in transfected cells; host or cells: human SK-Hep1 cells
# T1 sequence (Q07869 1-468): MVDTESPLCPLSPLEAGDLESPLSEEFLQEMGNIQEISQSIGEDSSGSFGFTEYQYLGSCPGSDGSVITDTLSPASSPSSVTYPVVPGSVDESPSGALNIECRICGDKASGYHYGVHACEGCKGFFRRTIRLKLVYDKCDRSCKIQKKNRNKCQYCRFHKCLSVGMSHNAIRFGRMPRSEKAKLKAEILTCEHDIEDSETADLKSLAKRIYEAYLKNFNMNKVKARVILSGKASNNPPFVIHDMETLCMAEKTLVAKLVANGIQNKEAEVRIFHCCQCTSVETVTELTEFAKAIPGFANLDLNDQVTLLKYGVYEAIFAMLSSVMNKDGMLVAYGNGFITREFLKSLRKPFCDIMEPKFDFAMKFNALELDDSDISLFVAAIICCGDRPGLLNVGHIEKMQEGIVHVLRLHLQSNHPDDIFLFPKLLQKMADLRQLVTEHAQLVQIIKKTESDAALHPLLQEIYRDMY
# Excerpt: (§1) Analysis of the activation of PPARα and PPARγ is based on the transfection of a DNA allowing the expression of a reporter gene (the gene of luciferase) under the control of the PPARs, either endogenous in the case of PPARγ or exogenous in the case of PPARα. The reporter plasmid J3TkLuc comprises three copies of the response element for PPARs of the human apo A-II gene (Staels, B et al. (1995), J. Clin. Invest., 95, 705-712) which are cloned upstream of the promoter of the thymidine kinase gene of the herpes simplex virus in the plasmid pGL3. This reporter gene was obtained by subcloning, in the plasmid pGL3, the plasmid J3TkCAT described above (Fajas, L et al. (1997), J. Biol. Chem., 272, 18779-18789). […] These cells were inoculated at the rate of 20,000 cells per well (96-well plates) and transfected with 150 ng of reporter DNA complexed with a mixture of lipids. In the case of the SK-Hep1 cells, an expression vector for PPARα, described by Sher, T. et al. (1993), Biochemistry, 32, 5598-5604, is cotransfected. After 5 hours, the cells are washed twice and incubated for 36 hours in the presence of the test compound in a fresh culture medium comprising 10% foetal calf serum. At the end of incubation, the cells are lysed and the luciferase activity is measured.
# [2] = system: PPAR gamma; test: PPAR-gamma transactivation assay (luciferase reporter, CV1 cells expressing PPARγ); format: cell-based, human; conditions: for Fold Activation PPAR gamma: 36 h incubation, luciferase activity relative to control
# Excerpt: as §1
# [3] = system: epidermal differentiation proteins; test: In vitro expression of epidermal differentiation proteins; format: cell-based; conditions: own unpublished results
# [4] = system: B16-V melanoma cells; test: Inhibition of melanin synthesis in B16-V melanoma cells (whitening activity); format: cell-based; conditions: 72 h, alpha-MSH stimulation, FIG. 1
# Description: B16-V melanoma cells were incubated for 72 h with assay medium containing different amounts of test substances. The concentration depends on the results of the MTT-Assay. Only concentrations without effect on viability (after 24 h incubation) were used for further melanin evaluation. Every 24 hours medium was changed and replaced by fresh assay medium containing the compounds and alpha-MSH (stimulation of melanin synthesis). The cell number was determined and the cells got lysed using 1M NaOH. Afterwards the amount of melanin was measured at 405 nm with a microplatereader (Safire2™, Tecan). Different concentrations of synthetic melanin were used to produce a calibration curve. Melanin content was expressed as pg/cell.
compound,measurement,setting,value
"CCOC(=O)c1c(C)n(CC(C)C)c2ccc(OC(C)(C(=O)O)c3ccccc3)cc12 (stereo not shown) [Compound, 2-Phenyl-2-(1-isobutyl-2-methyl-3-ethoxycarbonyl-5-indolyloxy)-propionic acid]",PPAR-alpha activation (in words),[1],activator
same,Fold Activation PPAR alpha,[1]; 0.1 μm,1.0 fold
same,Fold Activation PPAR alpha,[1]; 0.3 μm,1.3 fold
same,Fold Activation PPAR alpha,[1]; 1 μm,1.9 fold
same,Fold Activation PPAR alpha,[1]; 3 μm,2.3 fold
same,Fold Activation PPAR alpha,[1]; 6.25 μm,10.2 fold
same,Fold Activation PPAR alpha,[1]; 10 μm,6.7 fold
same,Fold Activation PPAR alpha,[1]; 12.5 μm,21.6 fold
same,Fold Activation PPAR alpha,[1]; 25 μm,34.8 fold
same,Fold Activation PPAR alpha,[1]; 30 μm,31.1 fold
same,Fold Activation PPAR alpha,[1]; 50 μm,42.0 fold
same,PPAR-gamma activation (in words),[2],activator
same,Fold Activation PPAR gamma,[2]; 0.1 μm,0.6 fold
same,Fold Activation PPAR gamma,[2]; 0.3 μm,1.8 fold
same,Fold Activation PPAR gamma,[2]; 1 μm,2.8 fold
same,Fold Activation PPAR gamma,[2]; 3 μm,3.0 fold
same,Fold Activation PPAR gamma,[2]; 6.25 μm,12.9 fold
same,Fold Activation PPAR gamma,[2]; 10 μm,4.3 fold
same,Fold Activation PPAR gamma,[2]; 12.5 μm,16.9 fold
same,Fold Activation PPAR gamma,[2]; 25 μm,18.7 fold
same,Fold Activation PPAR gamma,[2]; 30 μm,7.6 fold
same,Fold Activation PPAR gamma,[2]; 50 μm,18.8 fold
same,expression of epidermal differentiation proteins,[3],increased expression of epidermal differentiation proteins
same,melanin inhibiting activity,[4],superb melanin inhibiting activity
same,melanin inhibiting activity compared with kojic acid,[4],significantly better than kojic acid
